Data: ChEMBL document CHEMBL1156829 (Proc Natl Acad Sci U S A, 2008)
“And” between values parts separate entries of the source, which are not always exact repeats. Equal entries are not always repeated.

Tests used:
[1] = tested on: Plasmodium falciparum; test: NOVARTIS: Inhibition of Plasmodium falciparum 3D7 (drug-susceptible) proliferation in erythrocyte-based infection assay; type: functional, organism-based
[2] = tested on: Plasmodium falciparum; test: NOVARTIS: Inhibition of Plasmodium falciparum W2 (drug-resistant) proliferation in erythrocyte-based infection assay; type: functional, organism-based; settings: read-out: EC50
[3] = NOVARTIS: Cytotoxicity against human hepatocellular carcinoma cell line (Huh7); type: toxicity, cell-based, Huh-7; settings: Huh7 cells (hepatocellular carcinoma cell line)

In the case of CCC(=O)Nc1ccc(C(=O)NN=Cc2cc([N+](=O)[O-])ccc2O)cc1, the EC50 ([1]; Plasmodium falciparum, 3D7) is reported as over 1250 nM and the EC50 ([2]; Plasmodium falciparum, W2) is reported as 1540 nM.
For CCCCNc1nc(NC(C)(C)C)nc(NC(C)(C)C)n1, the EC50 ([1]; Plasmodium falciparum, 3D7) was 2160 nM and the EC50 ([2]; Plasmodium falciparum, W2) was 804 nM.
In the case of N#Cc1c2c(c(N3CCN(C(c4ccccc4)c4ccccc4)CC3)n3c1nc1ccccc13)CCC2, the EC50 ([1]; Plasmodium falciparum, 3D7) is reported as over 1250 nM and the EC50 ([2]; Plasmodium falciparum, W2) is reported as 2270 nM.
In the case of CCOC(=O)C1=C(C)NC(=Cc2cc(C)n(-c3ccccc3C(F)(F)F)c2C)C1=O, the EC50 ([1]; Plasmodium falciparum, 3D7) is reported as 13.8 nM and the EC50 ([2]; Plasmodium falciparum, W2) is reported as 11.7 nM.
Work on Cc1ccc(NC(=O)c2cc3ccccc3oc2=O)nc1 yielded an EC50 ([1]; Plasmodium falciparum, 3D7) of over 1080 nM and an EC50 ([2]; Plasmodium falciparum, W2) of over 1250 nM.
Compound CC12C(=O)N(c3cccc(C(=O)O)c3)C(=O)C1C1c3ccccc3C2c2ccccc21 (stereo not given) has an EC50 ([1]; Plasmodium falciparum, 3D7) of over 652 nM and an EC50 ([2]; Plasmodium falciparum, W2) of over 1250 nM.
CNc1nc(NN=Cc2cc([N+](=O)[O-])ccc2O)nc(Nc2cccc(C(F)(F)F)c2)n1 showed an EC50 ([1]; Plasmodium falciparum, 3D7) of 1860 nM and an EC50 ([2]; Plasmodium falciparum, W2) of over 1660 nM.
Work on CN(C)c1ccc(/C=C2\SC(=N)N(c3nccs3)C2=O)cc1 yielded an EC50 ([1]; Plasmodium falciparum, 3D7) of 223 nM and an EC50 ([2]; Plasmodium falciparum, W2) of 307 nM.
For O=C(/C=C/c1ccccc1)Nc1ccc(C(=O)OC[C@@H]2CCCN3CCCC[C@H]23)cc1, the EC50 ([1]; Plasmodium falciparum, 3D7) was 1440 nM and the EC50 ([2]; Plasmodium falciparum, W2) was over 1250 nM.
In the case of CCN(CC)c1ccc(/C=C/c2ccc3ccc(OC)cc3[n+]2CC)cc1, the EC50 [1] is reported as 38.4 nM and 248 nM.
CCCCOc1cccc(NC(=O)CSC2=C(C#N)C(c3ccccc3)C(C(=O)Nc3ccccc3)=C(C)N2)c1 (stereo not given) showed an EC50 ([1]; Plasmodium falciparum, 3D7) of 507 nM and an EC50 ([2]; Plasmodium falciparum, W2) of 479 nM.
CN1/C(=C/C=C/c2oc3ccccc3[n+]2C)Oc2ccccc21 showed an EC50 [1] of 182 nM and an EC50 ([1]; Plasmodium falciparum, 3D7) of 161 nM.
Compound COc1ccc(/C=C2\SC(=S)N(CC(=O)NNC(=O)c3ccncc3)C2=O)cc1 has an EC50 ([1]; Plasmodium falciparum, 3D7) of over 1520 nM and an EC50 ([2]; Plasmodium falciparum, W2) of 2280 nM.
For CCCCN(CCCC)c1nc(=O)cc(-c2ccc(Cl)cc2)o1, the EC50 ([1]; Plasmodium falciparum, 3D7) was 810 nM and the EC50 ([2]; Plasmodium falciparum, W2) was 636 nM.
Work on Cc1c(Br)c([N+](=O)[O-])nn1CC(=O)NC(C)c1ccccc1 (stereo not given) yielded an EC50 ([1]; Plasmodium falciparum, 3D7) of over 1250 nM and an EC50 ([2]; Plasmodium falciparum, W2) of over 948 nM.
With Cc1ccc(Nc2nc(-c3ccccn3)cs2)cc1 the EC50 ([1]; Plasmodium falciparum, 3D7) was 407 nM and the EC50 ([2]; Plasmodium falciparum, W2) was 368 nM.
With CN(C)c1ccc(/C=C2/SC(=Nc3ccccc3Cl)NC2=O)cc1 the EC50 [1] was 713 nM, the EC50 ([1]; Plasmodium falciparum, 3D7) was over 1250 nM and the EC50 [2] was > 512 nM and 1410 nM.
CCCOC(=O)c1c(NC(=O)c2c(I)cnn2C)sc2c1CCCCC2 showed an EC50 ([1]; Plasmodium falciparum, 3D7) of 1240 nM and an EC50 ([2]; Plasmodium falciparum, W2) of over 1250 nM.
Cc1ccc(C=Cc2ccc(N(C)C)cc2)[n+](C)c1 gave an EC50 [1] of 1160 nM and an EC50 [2] of 914 nM.
With CC(C)CN1C(=O)c2ccccc2C(C(=O)Nc2ccccn2)C1c1cccs1 (stereo not given) the CC50 [3] was over 100000 nM.
Work on O=C(Nc1cccc(-c2csc(-c3ccccc3)n2)c1)c1cccs1 yielded an EC50 ([1]; Plasmodium falciparum, 3D7) of 1240 nM and an EC50 ([2]; Plasmodium falciparum, W2) of 672 nM.
In the case of CN1/C(=C\C=C\C2=[N+](C)c3ccc4ccccc4c3C2(C)C)C(C)(C)c2ccccc21, the EC50 ([1]; Plasmodium falciparum, 3D7) is reported as 1640 nM and the EC50 ([2]; Plasmodium falciparum, W2) is reported as 1020 nM.
CC1(C)Cc2nc3ccccc3c(NCc3ccc(Cl)cc3)c2C(O)C1 (stereo not given) showed an EC50 ([1]; Plasmodium falciparum, 3D7) of over 1250 nM and an EC50 ([2]; Plasmodium falciparum, W2) of 2110 nM.
In the case of CN(C=Cc1sc2ccc3ccccc3c2[n+]1C)c1ccccc1, the EC50 [1] is reported as 553 nM and the EC50 [2] is reported as 909 nM.
For CC[n+]1ccc(C=Cc2ccc(N(C)C)cc2)cc1, the EC50 ([1]; Plasmodium falciparum, 3D7) was 681 nM and the EC50 [2] was 724 nM.
For C=CC1CN2CCC1CC2[C@@H](OC(=O)c1cc([N+](=O)[O-])cc([N+](=O)[O-])c1)c1ccnc2ccc(OC)cc12 (stereo not given in full), the EC50 ([1]; Plasmodium falciparum, 3D7) was 1300 nM and the EC50 ([2]; Plasmodium falciparum, W2) was 1610 nM.
Compound O=C(Cn1ccc(=NCc2ccccc2)cc1)c1cccc(Br)c1 has an EC50 ([1]; Plasmodium falciparum, 3D7) of over 1390 nM and an EC50 ([2]; Plasmodium falciparum, W2) of over 110 nM.
With O=C1C(N2CCCCC2)=C(N2CCOCC2)C(=O)c2ccccc21 the EC50 ([1]; Plasmodium falciparum, 3D7) was 1240 nM and the EC50 ([2]; Plasmodium falciparum, W2) was over 1460 nM.
COc1cc(C=NNc2nc3ccccc3[nH]2)cc(Br)c1O showed an EC50 ([1]; Plasmodium falciparum, 3D7) of 1420 nM and an EC50 ([2]; Plasmodium falciparum, W2) of over 1250 nM.
Work on COc1ccc(-c2csc(NC(=O)COc3ccccc3Cl)n2)cc1Br yielded an EC50 ([1]; Plasmodium falciparum, 3D7) of 1640 nM and an EC50 ([2]; Plasmodium falciparum, W2) of 286 nM.
Compound CC(C)CN1C(=O)c2ccccc2C(C(=O)Nc2cccc(Cl)c2)C1c1cccs1 (stereo not given) has a CC50 [3] of 93600 nM.
For CC(C)CN1C(=O)c2ccccc2C(C(=O)NC2CCCCC2)C1c1cccs1 (stereo not given), the CC50 [3] was over 100000 nM.
Oc1ccc(C(CCNCCc2c[nH]c3ccccc23)c2ccccc2)cc1 (stereo not given) gave an EC50 ([1]; Plasmodium falciparum, 3D7) of over 997 nM and an EC50 ([2]; Plasmodium falciparum, W2) of 474 nM.
Work on CCOC(=O)c1c[nH]c2c(ccc3ccccc32)c1=O yielded a CC50 [3] of over 100000 nM.
With C=CC12CCN(CC1)C(C(O)c1ccnc3ccc(OC)cc13)C2 (stereo not given) the EC50 ([2]; Plasmodium falciparum, W2) was 29.3 nM and the CC50 [3] was 77700 nM.
CCOC(=O)C1=C(C)N/C(=C/c2cc(C)n(-c3ccccc3C(F)(F)F)c2C)C1=O showed an EC50 ([1]; Plasmodium falciparum, 3D7) of 471 nM and an EC50 ([2]; Plasmodium falciparum, W2) of 628 nM.
Work on Oc1ccccc1CNC(Cc1ccccc1)C(O)(c1ccccc1)c1ccccc1 (stereo not given) yielded an EC50 ([1]; Plasmodium falciparum, 3D7) of 203 nM and an EC50 ([2]; Plasmodium falciparum, W2) of 27.6 nM.
O=C(CCCn1c2ccccc2c(=O)c2ccccc21)NCc1ccc(F)cc1 gave an EC50 ([1]; Plasmodium falciparum, 3D7) of 1110 nM and an EC50 ([2]; Plasmodium falciparum, W2) of 1100 nM.
CCOC(=O)CC(C)(O)P(=O)(OC)OC (stereo not given) gave an EC50 ([1]; Plasmodium falciparum, 3D7) of over 1010 nM and an EC50 ([2]; Plasmodium falciparum, W2) of over 1250 nM.
Compound C=C[C@H]1C[N@]2CC[C@H]1C[C@H]2[C@H](O)c1ccnc2ccc(OC)cc12 has an EC50 ([1]; Plasmodium falciparum, 3D7) of 518 nM and an EC50 ([2]; Plasmodium falciparum, W2) of 793 nM.
With CCN1C=Cc2ccccc2/C1=C\c1ccc2ccccc2[n+]1CC the EC50 ([1]; Plasmodium falciparum, 3D7) was 670 nM and the EC50 ([2]; Plasmodium falciparum, W2) was 294 nM.
CCN1/C(=C\c2sc3ccc(O)cc3[n+]2CC)C=Cc2ccccc21 showed an EC50 ([1]; Plasmodium falciparum, 3D7) of 582 nM and an EC50 ([2]; Plasmodium falciparum, W2) of 701 nM.
